Data: US8110570B2, “Modulators of acetyl-coenzyme A carboxylase and methods of use thereof” (Cropsolution, Inc., priority 2008, dated 2012)

Tests used:
[1] = tested on: MDA-MB-231 human breast cancer cells; test: MTT Cell Proliferation Assay; format: cell-based; details: 72 hours, read-out: Percent of Control MDA-MB-231
Procedure, shortened: (§1)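 Cells seeded and grown 24 h at 37 °C, 5% CO2, then exposed to compound for 72 h. Viability read by MTT reduction (4 h) after overnight lysis/solubilization. Results expressed as percent of control versus compound concentration.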

[2] = tested on: PC-3 human prostate cancer cells; test: MTT Cell Proliferation Assay; format: cell-based; details: 72 hours, read-out: Percent of Control PC-3
Procedure, shortened: as §1

[3] = tested on: HCT-116 human colon cancer cells; test: MTT Cell Proliferation Assay; format: cell-based; details: 72 hours, read-out: Percent of Control HCT-116
Procedure, shortened: as §1

[4] = tested on: A2780 human ovary cancer cells; test: MTT Cell Proliferation Assay; format: cell-based; details: 72 hours, read-out: Percent of Control A2780
Procedure, shortened: as §1

[5] = tested on: beta-hydroxybutyrate levels; test: In vivo elevation of rat serum beta-hydroxybutyrate levels; details: orally at 30 mg/Kg
Description: Determination of blood levels of ketone bodies after oral dosing of ACC inhibitors. Compounds of this invention, and salts thereof, can be evaluated for their potential as treatments for diseases caused by reduced neuronal metabolism by assessing their effects on plasma levels of beta-hydroxybutyrate. Inhibition of ACC leads to increased rates of fatty acid oxidation and therefore production of beta-hydroxybutyrate. Rats (Sprague Rats (Sprague Dawley, Charles River Laboratories, Boston, Mass.) are acclimated for at least 4 days prior to dosing. For example, animals given food and water ad libitum are treated at volume of 1.0 mL/200 g of body weight with either an aqueous solution containing 0.5% methyl cellulose (vehicle) or an aqueous solution containing 0.5% methyl cellulose containing test compound. At various times after compound administration whole blood is collected from a jugular vein catheter into lithium heparin coated tubes, mixed gently, kept on ice and centrifuged (2500×g, 15 minutes at 4° C.) within 1 hour of collection. The isolated plasma is kept frozen at −20° C. until further processing. Plasma levels of beta-hydroxybutyrate are determined using a beta-hydroxybutyrate detection kit following the manufacturer's directions (StanBio Laboratory, Boerne, Tex.). Compounds of the present invention, and salts thereof, were assessed for their ability to increase serum beta-hydroxybutyrate levels as described above.

[6] = tested on: HepG2 cells; test: Fatty acid synthesis assay, 14C-acetate incorporation into phospholipids; format: cell-based; details: Homo sapiens, 24 h, read-out: inhibition of radiolabel incorporation into phospholipids
Description: The in vivo ACC inhibitory activity of compounds in this invention can be confirmed in cultured cells using standard procedures that are well known to those skilled in the art. For example, since ACC catalyzes the first committed step in fatty acid biosynthesis, the in vivo activity of compounds can be confirmed by measuring their ability to prevent the formation of radiolabeled fatty acids from radiolabeled acetate in cultured human hepatoma cells (HepG2). In addition, since the malonyl-CoA produced by ACC inhibits fatty acid oxidation, the in vivo ACC inhibitory activity of compounds can be further confirmed by measuring the stimulation of fatty acid oxidation in cultured mouse myoblast cells (C2C12).
Fatty acid synthesis assays are performed with slight modifications to published procedures (Beckers et al., Cancer Res, 2007, 67: 8180-8187; Wang, J Lipid Res., 2006, 47:2028-41). Briefly, HepG2 cells are grown in Dulbecco's modified eagles medium containing 10% fetal calf serum in 6-well culture plates. Cells are treated for 24 h with test compounds added as DMSO stock solutions to a final DMSO concentration of 0.5% (v/v). After test compound incubation, ^14C—[2]-acetate is added (3 μCi/6 well plate) and cells are further incubated for 4 hrs. Cells are then harvested in 40% methanol and assayed for total protein. Total lipids are extracted with chloroform:methanol (2:1) and ^14C-radioactivity is quantified in the aqueous and organic phases. Total lipids in the organic phase are separated by thin-layer chromatography (TLC, silica gel 60A) using hexane:ether:acetic acid (90:30:1) as the mobile phase. Radioactivity distribution of lipid classes on TLC plates is quantified by phosphorimaging (Molecular Dynamics Storm 820). Compound 6 inhibited radiolabel incorporation into phospholipids 32% and 14% at 10 μM and 1 μM, respectively, while Compound 2 inhibited radiolabel incorporation into phospholipids 93% and 42% at 10 μM and 1 μM, respectively.

Structure (SMILES)	activity at 3.3 µM [1]	activity at 10 µM [1]	activity at 3.3 µM [2]	activity at 10 µM [2]	activity at 3.3 µM [3]	activity at 10 µM [3]	activity at 3.3 µM [4]	activity at 10 µM [4]	Average beta-Hydroxybutyrate Concentration ([5]; 15 min)	Average beta-Hydroxybutyrate Concentration ([5]; 30 min)	Average beta-Hydroxybutyrate Concentration ([5]; 60 min)	Average beta-Hydroxybutyrate Concentration ([5]; 120 min)	Average beta-Hydroxybutyrate Concentration ([5]; 240 min)	inhibition at 1 µM ([6]; HepG2, 1 μM)	inhibition at 10 µM ([6]; HepG2, 10 μM)
COc1ccc2c(c1)C(=O)NC1(CCN(C(=O)c3cc(OC)c4cccc(OC)c4n3)CC1)O2 [Compound 150]	76.1%	50.2%	60.7%	47.7%	70.2%	59.4%	86.5%	57.6%	0.160 mM	0.214 mM	0.147 mM	0.140 mM	0.102 mM		
COc1cc(C(=O)N2CCC3(CC2)NC(=O)c2cc(Br)ccc2O3)nc2c(OC)cccc12 [Compound 2, 6-Bromo-1′-[(4,8-dimethoxyquinoline-2-yl)carbonyl]spiro[2H-1,3-benzoxazine-2,4′-piperidine]-4(3H)-one]														42%	93%
COc1cc(C(=O)N2CCC3(CC2)NC(=O)c2cc(OC(C)C)ccc2O3)nc2c(OC)cccc12 [Compound 169]	81.4%	47.8%	54.7%	52.1%	57.2%	45%	80.5%	56.5%	0.149 mM	0.201 mM	0.135 mM	0.126 mM	0.118 mM		
